What all share (format): ADME, organism-based
Data set [1] can be described thus: Oral bioavailability in rat. As to conditions: in vivo.
Data set [2] can be described thus: Half life in rat. The note with it: in vivo.
A short description of data set [3]: Clearance in rat. The note with it: in vivo.
Data set [4] can be described thus: Volume of distribution at steady state in rat. As to conditions: in vivo, read-out: Vdss.

The source of these data is ChEMBL document CHEMBL1157125, “Modifications of C-2 on the pyrroloquinoline template aimed at the development of potent herpesvirus antivirals with improved aqueous solubility” (Bioorg Med Chem Lett, 2010).

As for `O=C(NCc1ccc(Cl)cc1)c1cn2c(CCO)cc3cc(CN4CCOCC4)cc(c1=O)c32`, in data set [1], the bioavailability (commonly the share of a dose that reaches the circulation, judged against a reference dose that is usually intravenous) stood at 66%. The half-life – broadly, how long it takes for the measured level to halve – in data set [2] is 48 min. For the same compound, the clearance – broadly, the volume of plasma or blood freed of the substance per unit of time – in data set [3] is 41.7 mL/min/kg. In addition, the Vd in data set [4] came out at 1.7 L/kg.
